These results are taken from ChEMBL document CHEMBL5725333, “Fumagillol heterocyclic compounds and methods of making and using same” (2017).

SMILES strings stand for the structures. Some results are limits rather than exact numbers.

The assay addresses Methionine aminopeptidase 2 (Homo sapiens, UniProt P50579). Briefly: 10 mM stock solutions of compounds were prepared in 100% DMSO and further diluted in 100% DMSO required concentration to 1 mM stocks. The stock compound solutions and DMSO vehicle controls were diluted to target final compound concentrations using assay buffer to a final concentration of 50 mM HEPES containing 100 mM NaCl, pH adjusted to 7.5. The MAS peptide was formulated to a 7.5 mM stock in distilled water and prior to use further diluted 1:4. […] 40 μl of enzyme was mixed with 100 μl of MnCl2 then further diluted in assay buffer to a final concentration of 16 μg/ml. To test for compound effect on MetAP2 enzyme activity, 5 μl of test compound, 10 μl of MAS substrate/amino acid oxidase mixture, 10 μl of MetAP2 was added to test wells in a 384 well black plate with blank wells containing no enzyme, replaced with 10 μl of assay buffer. All compounds were tested in duplicate on two occasions on the same day. […] The plate was sealed with a TopSeal A cover and mixed briefly on an orbital mixer at 900 rpm. The plate was incubated for a further 25 minutes at 25° C. A 5× stock of Amplex buffer was prepared (0.25M sodium phosphate, pH 7.4) and stored at 4° C. […] 25 μl detection reagent was added to each well of the test plate, which was re-sealed and mixed briefly on an orbital shaker.

Sequence of Methionine aminopeptidase 2 (P50579 whole entry): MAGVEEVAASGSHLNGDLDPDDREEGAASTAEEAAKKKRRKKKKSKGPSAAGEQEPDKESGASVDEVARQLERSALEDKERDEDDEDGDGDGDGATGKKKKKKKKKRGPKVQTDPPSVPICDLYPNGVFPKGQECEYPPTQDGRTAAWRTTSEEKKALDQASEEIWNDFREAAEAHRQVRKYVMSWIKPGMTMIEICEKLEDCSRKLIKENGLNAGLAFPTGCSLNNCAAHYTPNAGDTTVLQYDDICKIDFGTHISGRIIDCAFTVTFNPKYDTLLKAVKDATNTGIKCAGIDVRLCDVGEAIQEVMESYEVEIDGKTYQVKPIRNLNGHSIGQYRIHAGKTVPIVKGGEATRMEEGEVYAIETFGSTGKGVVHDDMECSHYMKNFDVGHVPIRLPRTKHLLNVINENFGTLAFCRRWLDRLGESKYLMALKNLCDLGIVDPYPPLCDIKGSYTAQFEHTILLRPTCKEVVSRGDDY

As for `CCN(CC)CCNC(=O)OCC1CN(C(=O)O[C@@H]2CC[C@]3(CO3)[C@@H]([C@@]3(C)O[C@@H]3CC=C(C)C)[C@@H]2OC)C1`, the IC50 is below 50 nM. For `CO[C@@H]1[C@H](OC(=O)N2CC(CCN3CCCC3)C2)CC[C@]2(CO2)[C@H]1[C@@]1(C)O[C@@H]1CC=C(C)C` the value was below 50 nM.

A word on the IC50: it is the concentration needed to halve the response being measured.
